{
  "source": "patent US6476046B1",
  "about": "“Diazabicyclo[4.3.0]nonanes, and methods of use thereof” (Sepracor, Inc., priority 2000, dated 2002)",
  "key": {"human opiate receptor μ": {"molecular_target": "human opiate receptor μ (Homo sapiens, UniProt P35372)", "sequence (P35372 whole entry)": "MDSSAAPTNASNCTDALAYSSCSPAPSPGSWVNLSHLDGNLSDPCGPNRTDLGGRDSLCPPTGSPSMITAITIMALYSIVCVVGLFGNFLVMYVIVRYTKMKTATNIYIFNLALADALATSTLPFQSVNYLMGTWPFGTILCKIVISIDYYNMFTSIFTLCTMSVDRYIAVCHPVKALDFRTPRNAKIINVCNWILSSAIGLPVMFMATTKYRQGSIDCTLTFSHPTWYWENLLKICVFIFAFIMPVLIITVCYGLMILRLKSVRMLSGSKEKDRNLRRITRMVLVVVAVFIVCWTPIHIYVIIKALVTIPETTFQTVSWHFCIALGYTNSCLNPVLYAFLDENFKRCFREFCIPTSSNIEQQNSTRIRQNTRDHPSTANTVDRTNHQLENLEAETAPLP", "experiment": "Radioligand binding assay, human opiate receptor μ", "description": "Another assay useful in the present invention concerns determining the ability of a ligand to bind to a biological receptor utilizing a technique well known in the art referred to as a radioligand binding assay. This assay accurately determines the specific binding of a radioligand to a targeted receptor through the delineation of its total and nonspecific binding components. Total binding is defined as the amount of radioligand that remains following the rapid separation of the radioligand bound in a receptor preparation (cell homogenates or recombinate receptors) from that which is unbound. The nonspecific binding component is defined as the amount of radioligand that remains following separation of the reaction mixture consisting of receptor, radioligand and an excess of unlabeled ligand. Under this condition, the only radioligand that remains represents that which is bound to components other that receptor. The specific radioligand bound is determined by subtracting the nonspecific from total radioactivity bound. For a specific example of radioligand binding assay for μ-opioid receptor, see Wang, J. B. et al. FEBS Letters 1994, 338, 217.\n(§1) Radioligand Binding Assays (IC50, μM)\n(§2) The radiobinding assays for human opiate receptor μ, κ and δ are conducted according the procedures outlined by Maguire et al. (Eur. Pharmacol. 1992, 213, 219)."}, "human opiate receptor δ": {"molecular_target": "human opiate receptor δ (Homo sapiens, UniProt P41143)", "sequence (P41143 whole entry)": "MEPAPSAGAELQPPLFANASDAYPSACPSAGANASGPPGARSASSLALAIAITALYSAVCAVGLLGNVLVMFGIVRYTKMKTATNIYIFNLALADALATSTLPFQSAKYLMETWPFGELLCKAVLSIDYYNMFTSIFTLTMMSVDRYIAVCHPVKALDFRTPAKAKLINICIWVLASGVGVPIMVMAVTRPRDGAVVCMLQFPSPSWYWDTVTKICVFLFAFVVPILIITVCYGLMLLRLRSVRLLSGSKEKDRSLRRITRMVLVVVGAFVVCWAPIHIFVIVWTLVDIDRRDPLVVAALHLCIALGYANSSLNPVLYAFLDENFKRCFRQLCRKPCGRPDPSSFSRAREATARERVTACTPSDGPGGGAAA", "experiment": "Radioligand binding assay, human opiate receptor δ", "procedure": "as §1, §2"}, "human opiate receptor κ": {"molecular_target": "human opiate receptor κ (Homo sapiens, UniProt P41145)", "sequence (P41145 whole entry)": "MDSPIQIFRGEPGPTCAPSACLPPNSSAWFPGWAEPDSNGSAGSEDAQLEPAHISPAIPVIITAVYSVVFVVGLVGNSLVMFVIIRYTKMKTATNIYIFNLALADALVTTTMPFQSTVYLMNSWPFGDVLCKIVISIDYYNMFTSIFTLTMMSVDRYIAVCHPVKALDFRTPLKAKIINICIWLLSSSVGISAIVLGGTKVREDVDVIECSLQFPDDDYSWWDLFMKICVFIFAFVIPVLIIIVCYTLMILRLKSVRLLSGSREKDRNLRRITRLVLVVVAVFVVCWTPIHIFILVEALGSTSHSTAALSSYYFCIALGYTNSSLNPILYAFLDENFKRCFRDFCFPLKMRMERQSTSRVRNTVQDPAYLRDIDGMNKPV", "experiment": "Radioligand binding assay, human opiate receptor κ", "procedure": "as §1, §2"}, "[1]": {"experiment": "In vivo analgesia, hot plate test", "conditions": "Rattus norvegicus", "description": "(§3) Various experimental procedures, well known in the art, are useful in the present invention to assess the analgesic effect of compounds, such as the “tail flick” and “hot plate” tests. The “tail flick” test can be performed by applying a noxious thermal stimulus to the rat's tail and determining the time until the nociceptive tail flick occurs.\n(§4) In vivo Analgesia Experiments"}, "[2]": {"experiment": "In vivo analgesia, tail flick model", "conditions": "Rattus norvegicus", "procedure": "as §3, §4\nThe tail flick model was conducted according to D'Amour F. E. and Smith D. L. J. Pharmacol. Exp. Ther. 1941, 72, 74."}, "[3]": {"conditions": "radioligand binding, human opiate receptor μ, read-out: μ (IC50)"}, "[4]": {"conditions": "radioligand binding, human opiate receptor κ, read-out: κ (IC50)"}, "[5]": {"conditions": "radioligand binding, human opiate receptor δ, read-out: δ (IC50)"}},
  "note": "Where two headings read alike, the source gives them in different places.",
  "data": [
    {"molecule": "COc1cccc(C(O)C23CN(CCc4ccccc4)CCC2CN(Cc2ccccc2)C3)c1", "note": "(centres unmarked) [Compound 14]", "values": [
      {"measurement": "IC50", "setting": "human opiate receptor μ; [3]", "result": "< 1000", "unit": "nM"}
    ]},
    {"molecule": "CCC(=O)N(c1ccccc1)C(C)C12CN(CCc3ccccc3)CCC1CN(Cc1ccccc1)C2", "note": "(centres unmarked) [Compound 31]", "values": [
      {"measurement": "IC50", "setting": "human opiate receptor δ", "result": "< 1000", "unit": "nM"},
      {"measurement": "IC50", "setting": "human opiate receptor μ", "result": "< 10", "unit": "nM"},
      {"measurement": "IC50", "setting": "human opiate receptor κ", "result": "< 5", "unit": "µM"}
    ]},
    {"molecule": "CCC(=O)N(CC12CN(C)CC1CCN(CCc1ccccc1)C2)c1ccccc1", "note": "(centres unmarked) [Compound 42]", "values": [
      {"measurement": "IC50", "setting": "human opiate receptor μ; [3]", "result": "< 1000", "unit": "nM"}
    ]},
    {"molecule": "CCC(=O)N(CC12CN(CCc3ccccc3)CCC1CN(CCc1ccccc1)C2)c1ccccc1", "note": "(centres unmarked) [Compound 36]", "values": [
      {"measurement": "IC50", "setting": "human opiate receptor δ", "result": "< 1000", "unit": "nM"},
      {"measurement": "IC50", "setting": "human opiate receptor μ", "result": "< 10", "unit": "nM"},
      {"measurement": "IC50", "setting": "human opiate receptor κ", "result": "< 5", "unit": "µM"}
    ]},
    {"molecule": "CS(=O)(=O)N(CC12CN(CCc3ccccc3)CCC1CN(Cc1ccccc1)C2)c1ccccc1", "note": "(centres unmarked) [Compound 25]", "values": [
      {"measurement": "IC50", "setting": "human opiate receptor μ; [3]", "result": "< 1000", "unit": "nM"},
      {"measurement": "IC50", "setting": "human opiate receptor κ; [4]", "result": "< 10", "unit": "µM"}
    ]},
    {"molecule": "C[C@@H](N(C(=O)C1CCC1)c1ccccc1)C12CN(CCc3ccccc3)CCC1CN(Cc1ccccc1)C2", "note": "(some centres unmarked) [Compound 33]", "values": [
      {"measurement": "IC50", "setting": "human opiate receptor δ", "result": "< 5000", "unit": "nM"},
      {"measurement": "IC50", "setting": "human opiate receptor μ", "result": "< 1000", "unit": "nM"},
      {"measurement": "IC50", "setting": "human opiate receptor κ", "result": "< 5", "unit": "µM"}
    ]},
    {"molecule": "CCC(=O)N(CC12CN(CCc3ccccc3)CCC1CN(Cc1ccccc1)C2)c1ccccc1", "note": "(centres unmarked) [Compound 23]", "values": [
      {"measurement": "IC50", "setting": "human opiate receptor δ; [5]", "result": "< 1000", "unit": "nM"},
      {"measurement": "IC50", "setting": "human opiate receptor μ; [3]", "result": "< 100", "unit": "nM"},
      {"measurement": "IC50", "setting": "human opiate receptor κ; [4]", "result": "< 5", "unit": "µM"}
    ]},
    {"molecule": "CCC(=O)N(C[C@@]12CN(CCc3ccccc3)CCC1CN(CCc1ccccc1)C2)c1ccccc1", "note": "(single isomer, unassigned) [Compound 37]", "values": [
      {"measurement": "IC50", "setting": "human opiate receptor δ; [5]", "result": "< 1000", "unit": "nM"},
      {"measurement": "ED50", "setting": "[1]", "result": 0.06, "unit": "mg/kg"},
      {"measurement": "IC50", "setting": "human opiate receptor μ; [3]", "result": "< 10", "unit": "nM"},
      {"measurement": "IC50", "setting": "human opiate receptor κ; [4]", "result": "< 1", "unit": "µM"},
      {"measurement": "ED50", "setting": "[2]", "result": 0.05, "unit": "mg/kg"}
    ]},
    {"molecule": "CCC(=O)N(CC12CN(CCc3ccccc3)CCC1CN(C(C)=O)C2)c1ccccc1", "note": "(centres unmarked) [Compound 40]", "values": [
      {"measurement": "IC50", "setting": "human opiate receptor μ; [3]", "result": "< 1000", "unit": "nM"}
    ]},
    {"molecule": "CCC(=O)N(CC12CN(CCc3ccccc3)CCC1CN(S(C)(=O)=O)C2)c1ccccc1", "note": "(centres unmarked) [Compound 41]", "values": [
      {"measurement": "IC50", "setting": "human opiate receptor μ; [3]", "result": "< 1000", "unit": "nM"}
    ]},
    {"molecule": "O[C@@H](c1ccccc1)C12CN(CCc3ccccc3)CCC1CN(Cc1ccccc1)C2", "note": "(some centres unmarked) [Compound 11]", "values": [
      {"measurement": "IC50", "setting": "human opiate receptor μ; [3]", "result": "< 1000", "unit": "nM"},
      {"measurement": "IC50", "setting": "human opiate receptor κ; [4]", "result": "< 5", "unit": "µM"}
    ]},
    {"molecule": "O[C@H](c1ccccc1)C12CN(CCc3ccccc3)CCC1CN(Cc1ccccc1)C2", "note": "(some centres unmarked) [Compound 12]", "values": [
      {"measurement": "IC50", "setting": "human opiate receptor μ; [3]", "result": "< 1000", "unit": "nM"},
      {"measurement": "IC50", "setting": "human opiate receptor κ; [4]", "result": "< 5", "unit": "µM"}
    ]},
    {"molecule": "CCC(=O)N(C[C@]12CN(CCc3ccccc3)CCC1CN(CCc1ccccc1)C2)c1ccccc1", "note": "(single isomer, unassigned) [Compound 38]", "values": [
      {"measurement": "IC50", "setting": "human opiate receptor δ; [5]", "result": "< 1000", "unit": "nM"},
      {"measurement": "ED50", "setting": "[1]", "result": 152, "unit": "mg/kg"},
      {"measurement": "IC50", "setting": "human opiate receptor μ; [3]", "result": "< 100", "unit": "nM"},
      {"measurement": "IC50", "setting": "human opiate receptor κ; [4]", "result": "< 5", "unit": "µM"},
      {"measurement": "ED50", "setting": "[2]", "result": 0.18, "unit": "mg/kg"}
    ]},
    {"molecule": "C[C@H](N(C(=O)C1CCC1)c1ccccc1)C12CN(CCc3ccccc3)CCC1CN(Cc1ccccc1)C2", "note": "(some centres unmarked) [Compound 32]", "values": [
      {"measurement": "IC50", "setting": "human opiate receptor δ", "result": "< 1000", "unit": "nM"},
      {"measurement": "IC50", "setting": "human opiate receptor μ", "result": "< 100", "unit": "nM"},
      {"measurement": "IC50", "setting": "human opiate receptor κ", "result": "< 5", "unit": "µM"}
    ]}
  ]
}
